The test system of one experiment is dairy cows. The note with it: all administration rates evaluated; cited from earlier work.
The test system of experiment [1] is Ruminal VFA (rumen fluid). As to the kind of experiment: In vitro rumen fluid fermentation test, ratio of VFA in treated to control flasks. The note with it: 16 hours at 38° C. Also noted: species or system steer. From the text: As previously noted, a preferred method for improving milk production in lactating ruminants comprises the oral administration of the virginiamycin type antibiotic A-2315. […] Rumen fluid is obtained from a steer with a surgically-installed fistula opening into the rumen. The steer is maintained on a high-grain ration, the composition of which follows: A sample of rumen fluid is strained through four layers of cheesecloth, and the filtrate is collected. The particulate matter retained by the cheesecloth is resuspended in enough physiological buffer to return it to the original volume of the rumen fluid, and this suspension is strained again. The buffer used has the following composition: The two filtrates are combined and allowed to stand until particulate matter separates to the top. The clear layer is separated, diluted with the same buffer (1:1) and then adjusted to pH 7.0. The diluted rumen fluid (10 ml.) is placed in a 25-ml flask with 40 mg. of the above-described feed, an additional 5 mg. of soybean protein, and the test compound. Four replicate flasks are used per treatment. Two sets of four control flasks each are also employed. A zero-time control and an incubated 16-hour control are used. All test flasks are incubated for 16 hours at 38° C. After incubation, 25 percent metaphosphoric acid (2 ml.) is added to each flask. The samples are allowed to settle, and the supernatant is analyzed by gas chromatography for propionate, acetate, and butyrate compounds. Test compound results are statistically compared with control results.

The subject of a further experiment is Ruminal VFA. As to the kind of experiment: In vivo ruminal VFA test in fistulated non-lactating lambs. The note with it: 15 g/ton in feed. Also on record: species or system sheep. On the procedure: Two groups of fistulated lambs are allowed slightly more than their normal feed ration for 17 days. Test compound is administered to one group in the feed on a g/ton basis.
The rumen fluids of both groups of animals are sampled on days 3, 7, 10, 14 and 17 of the treatment period.
The fermentation of the ruminal samples is halted by addition of meta-phosphoric acid. Each sample is diluted, centrifuged at 2000×gravity for 10 minutes; the supernatants are analyzed for volatile fatty acids via the gas chromatographic method of E. S. Erwin, G. J. Marco and E. M. Emery in J. Dairy Sci., 44, 1768 […]. Molar percentages of ruminal volatile fatty acids are calculated, and the effect is measured as a comparison of the molar percentages of propionic acid and butyric acid in treated animals to those in contemporary controls. The results of the test are presented below in Tables II and III.

The mark [2] stands for this setting: 0.1 mcg per ml diluted rumen fluid.
Setting [3] is: 0.3 mcg per ml diluted rumen fluid.
[4] abbreviates: 1.0 mcg per ml diluted rumen fluid.
Setting [5] is: molar percentage of ruminal VFA, 17 days.

Consider `CC[C@@]1([C@@H]2O[C@@H]([C@H]3O[C@@](O)(CO)[C@H](C)C[C@@H]3C)C[C@@H]2C)CC[C@H]([C@]2(C)CC[C@]3(C[C@H](O)[C@@H](C)[C@@H]([C@@H](C)[C@@H](OC)[C@H](C)C(=O)O)O3)O2)O1` [Monensin], for which the fat-corrected-milk production result with dairy cows is listed as “no different from that of non-treated control animals”.
With `CC1=C\[C@@H](O)C[C@@H](O)Cc2nc(co2)C(=O)N[C@H](C)C(=O)O[C@H](C(C)C)[C@H](C)/C=C/C(=O)NC\C=C\1` [A-2315 Factor A], in experiment [1] (setting [2]), the “Acetate, ratio of VFA concentration in treated flasks to control flasks” value (“Acetate, ratio of VFA concentration” for short) stood at 0.97; the “Butyrate, ratio of VFA concentration in treated flasks to control flasks” value (“Butyrate, ratio of VFA concentration” below) stood at 1.01; the “Propionate, ratio of VFA concentration in treated flasks to control flasks” value (“Propionate, ratio of VFA concentration” below) is on record as 1.07; the “Total VFA, ratio of concentration in treated flasks to control flasks” value (from here on “Total VFA, ratio of concentration”) is given as 1.04. Further, in experiment [1] (setting [3]), the “Acetate, ratio of VFA concentration” value was 0.95; the “Butyrate, ratio of VFA concentration” value is 1.00; the “Propionate, ratio of VFA concentration” value is reported as 1.08; the “Total VFA, ratio of concentration” value is on record as 1.07. Further, in experiment [1] (setting [4]), the “Acetate, ratio of VFA concentration” value turned out to be 0.95; the “Butyrate, ratio of VFA concentration” value turned out to be 1.04; the “Propionate, ratio of VFA concentration” value was 1.15; the “Total VFA, ratio of concentration” value amounted to 1.05. Further, in the experiment on Ruminal VFA, the “Butyric acid, Increase Relative to Control” value is 21.6% and the “Propionic acid, Increase Relative to Control” value was determined as 18.2%. For the same compound, the “Butyric acid, Change from Control” value with Ruminal VFA (control 11.1) worked out at 2.4. Besides, the “Propionic acid, Change from Control” value with Ruminal VFA (control 26.2) was 4.8. In the experiment with Ruminal VFA (setting [5]), the “% Butyric Acid Conc.” value is 13.5% and the “% Propionic Acid Conc.” value was found to be 31.0%.

Source of the values: patent US4336250A, “Lactation improvement method” (Eli Lilly and Company, priority 1981, dated 1982).
